From patent US20120021519A1, “EFFICIENT INDUCTION OF PLURIPOTENT STEM CELLS USING SMALL MOLECULE COMPOUNDS” (PRESIDENTS AND FELLOWS OF HARVARD COLLEGE, priority 2008, published 2012)
Where “and” joins values, the source holds several entries; their conditions need not be identical. Equal values may be shown once. Entries after “also recorded” stand apart in the source; their conditions may differ. Read-outs that look alike come from different tables or passages of the source.

Columns and labels:
[1] = tested on: Oct4, Klf4, and cMyc-infected Oct4::GFP MEFs; assay: Sox2 replacement: Oct4::GFP+ colony formation in Oct4, Klf4, cMyc-infected MEFs; assay type: cell-based, mouse
Experimental: MEFs were derived from E12.5 embryos hemizygous for the Oct4::GFP transgenic allele. Gonads and internal organs were removed before processing the embryos for MEF isolation. MEFs were grown in DMEM supplemented with 10% FBS and penicillin/streptomycin. Low passage (up to passage 3) MEFs were used for generation of iPS cells.
(§1) Moloney-based retroviral vectors (pMXs) expressing the murine complementary DNAs of Oct4, Sox2, c-Myc, and Klf4 were obtained from Addgene. These plasmids were transfected separately into individual populations of Plat-E packaging cells using Fugene 6, with 27 μl of Fugene 6 and 9 μg of DNA per 10 cm dish of Plat-E cells. Viral supernatants were obtained 48-72 hours post-transfection, filtered through a 0.22 μm filter, diluted 1:1 in MEF growth media, and supplemented with polybrene at a final concentration of 5 μg/ml. The supernatants for the four factors were mixed in an equimolar ratio, and media was used in place of a factor when it was omitted from the infection. MEFs were infected with two to three pools of viral supernatant during a 72-hour period. The first day that viral supernatant was termed “day 1 post-infection.”
(§2) On day 4 post-infection, infected MEFs were trypsinized and re-seeded on irradiated feeders in 96-well plates at 2000 cells/well and cultured in mouse ES cell media (Knockout DMEM supplemented with 15% Hyclone FBS, L-glutamine, penicillin/streptomycin, nonessential amino acids, β-mercaptoethanol, and 1000 U/ml LIF). The next day, compound stock solutions diluted in DMSO and, where applicable, VPA (Sigma), were added at a final concentration of 1 μM and 2 mM, respectively. VPA was removed after 1 week, and compound was re-applied every other day with each media change. Plates were scored for GFP+colonies after 11 of compound treatment.
Infections and VPA/compound addition was done as in the original chemical screen, and wells were scored for GFP+ colonies on day 25 after compound addition.
(§3) Retroviral infection and compound or antibody treatment was performed as in the original chemical screen. To quantify the numbers of GFP+colonies produced in
(§4) different conditions, the number of colonies in each well was counted and at least 2 different wells were counted and averaged. Concentrations of compounds and antibodies were the following: VPA (Sigma)-2 mM, RepSox (Calbiochem)-25 μM, E-616451 (Calbiochem)-3 μM, EI-275 (Biomol)-3 SB-431542 (Sigma)-25 μM, TgfβIIspecific antibody (R&D Systems, AB-12-NA)-10 μg/ml, pan-Tgβ antibody (R&D Systems, AB-100-NA)-10 μg/ml. Unless otherwise noted, all chemical treatments were continuous from initial administration at day 4-5 post-infection until GFP+colonies were scored. Fresh chemical was added at each media change.

[2] = tested on: Oct4, Klf4, cMyc, and Sox2-infected MEFs; assay: Reprogramming efficiency with all four factors; assay type: cell-based, mouse
Experimental: as §1, §3, §4

[3] = tested on: Klf4, cMyc, and Sox2-infected Oct4::GFP MEFs; assay: Oct4 replacement: Oct4::GFP+ colonies in Klf4, cMyc, Sox2-infected MEFs; assay type: cell-based, mouse
Experimental: as §1, §2
The inventors re-iterated their screen to find small molecules that could replace Oct4 (FIG. 27A). The inventors modified their approach slightly and screened in normal mES culture media containing a higher concentration of VPA (2 mM). After transducing 7500 MEFs with the four reprogramming transgenes and treating with VPA, the inventors observed only ˜125 GFP+ colonies (FIG. 27C). […] Therefore we opted to continue the screen under these conditions.
Following transduction with only Klf4, cMyc, and Sox2, 2000 MEFS were cultured for 25 days in the presence of VPA and each compound from the chemical library (FIG. 27A). […] Additionally, Ropivacaine, a compound that both antagonizes Na^+-channels and that also activates p38 mitogen-activated protein kinase (MAPK)(25)(FIG. 27B), induced more than 10 colonies that had mES-like morphologies, but were not GFP+(FIG. 27C).

[4] = tested on: stable Oct4::GFP-negative intermediate cell lines (OKMS); assay: Chemical reprogramming of stable intermediate cell lines from Oct4, Klf4, cMyc, Sox2 MEFs; assay type: cell-based, mouse
Experimental: (§5) Oct4::GFP-negative colonies in Oct4, Klf4, and cMyc or Oct4, Klf4, cMyc, and Sox2-infected MEF cultures were picked, plated on irradiated feeders, and single colonies were picked after 1 week. The resulting cell lines were passaged with trypsin and grown in mES media on feeders until passage 4, at which time they were treated with RepSox (25 μM), AZA (500 μM), or both for 48 hours. Oct4::GFP+colonies were scored 12 days after the beginning of chemical treatment.

[5] = tested on: stable Oct4::GFP-negative intermediate cell lines (OKM); assay: Chemical reprogramming of stable intermediate cell lines from Oct4, Klf4, cMyc MEFs; assay type: cell-based, mouse
Experimental: as §5

[6] = tested on: Oct4, cMyc and Sox2-infected Oct4::GFP MEFs; assay: Klf4 replacement: Oct4::GFP+ colonies in Oct4, cMyc, Sox2-infected MEFs; assay type: cell-based, mouse
Experimental: as §1
as §2, with “VPA was removed after 1 week, and compound was re-applied every other day with each media change.” left out, “treatment. […]” for “treatment.”

Nanog = Nanog expression in partially reprogrammed intermediate cell lines; assay type: cell-based, mouse; conditions: lines OKM 10 and OKMS 7, 48 hours
Experimental: Cells were grown to near confluence on an irradiated layer and RNA was isolated with Trizol (Invitrogen). RNA was amplified and labeled with biotin using the Illumina Total Prep RNA Amplification Kit from Ambion, hybridized to Illumina Whole-Genome Expression BeadChips (MouseRef-8), and analyzed by an Illumina Beadstation 500. All lines were analyzed in biological duplicate or triplicate. Data were processed using Resolver software.

[7] = tested on: MEFs transduced with Oct4, Klf4, and Sox2; assay: cMyc replacement: Oct4::GFP+ colonies in the absence of cMyc; assay type: cell-based, mouse
Experimental: as §1, §3
different conditions, the number of colonies in each well was counted and at least 2 different wells were counted and averaged. […] Unless otherwise noted, all chemical treatments were continuous from initial administration at day 4-5 post-infection until GFP+colonies were scored. […]

Tgf-β signaling = conditions: reference 32; cited from earlier work

c1ccc(-c2n[nH]cc2-c2ccnc3ccccc23)nc1 [E-616451, [3-(Pyridin-2-yl)-4-(4-quinoyl)]-1H-pyrazole]
rate of GFP+ colony formation with VPA ([1]; 1500 MEFs, + VPA, E-616452 25 μM, E-616451 3 μM, EI-275 3 μM): comparable to normal retroviral transduction with Sox2
GFP+ colonies with mES-like morphology in primary screen ([1]; 2000 cells per well, compound 1 μM, 2 mM VPA for first 7 days, scored after 16 days): induced GFP+colonies
concentration at which found to be most potent in reprogramming ([1]; E-616451 and EI-275 +VPA): 3 µM
optimal concentration for Oct4::GFP+ colony formation ([1]; compound titration, 2 mM of VPA in all wells (FIG. 7)): greater than 1 μM
GFP+ colonies in the absence of VPA ([1]; no VPA): could not induce the appearance of GFP+colonies
effect on reprogramming efficiency with all four iPS factors [2]: not enhanced; also recorded: do not increase the efficiency of reprogramming

CCCCN1CCCCC1C(=O)Nc1c(C)cccc1C (stereo not drawn) [Bupivacaine]
Oct4::GFP+ colonies in the absence of VPA ([3]; larger scale): independently induced GFP+colonies
effect on reprogramming efficiency with all four iPS factors [2]: not enhanced
effect on reprogramming efficiency with all four iPS factors ([2]; listed as Bupivocaine): do not increase the efficiency of reprogramming

Nc1ncn([C@@H]2O[C@H](CO)[C@@H](O)[C@H]2O)c(=O)n1 [AZA, 5-aza-cytidine]
Oct4::GFP expression in RepSox-responsive OKMS lines ([4]; 48 hours treatment and 12 subsequent days): none of the RepSox-responsive cell lines expressed Oct4::GFP
lines reprogrammed out of 9 OKMS intermediate lines ([4]; 48 hours treatment at passage 4): one
lines reprogrammed out of 10 OKM intermediate lines ([5]; 48 hours treatment): none
Oct4::GFP+ colonies in line OKM 10 ([5]; 48 hours, then 14 days culture): Neither chemical induced formation of Oct4::GFP+colonies

O=C(O)c1cc(NCc2cc(O)ccc2O)ccc1O [HDBA, Lavendustin C]
GFP+ colonies with mES-like morphology in Klf4 replacement screen ([6]; 2000 cells per well, 25 days, scored after 30 days): hit compounds
induction of GFP+ colonies and dependence on VPA ([6]; larger scale validation): both with and without VPA
effect on reprogramming efficiency with all four iPS factors [2]: do not increase the efficiency of reprogramming

CCCN1CCCC[C@H]1C(=O)Nc1c(C)cccc1C [Ropivacaine]
colonies becoming Oct4::GFP+ after added 5-aza-cytidine ([3]; VPA, then 5-aza-cytidine for 48 hours): majority of these colonies became Oct4::GFP+
formation of GFP+ colonies, dependence on VPA and 5-aza-cytidine ([3]; larger scale): only when used in conjunction with VPA and 5-aza-cytidine
colonies with mES-like morphologies but not GFP+ ([3]; screen with VPA): more than 10
effect on reprogramming efficiency with all four iPS factors [2]: do not increase the efficiency of reprogramming

COC1=C[C@@H]2[C@@H]3Cc4ccc(OC)c(O)c4C2(CCN3C)CC1=O [Sinomenine]
GFP+ colonies in Oct4 replacement screen ([3]; 2000 MEFs, 25 days, VPA 2 mM): induced GFP+colonies
Oct4::GFP+ colonies in the absence of VPA ([3]; larger scale): failed to induce Oct4::GFP+colonies
Oct4::GFP+ colonies in the presence of VPA ([3]; larger scale): induced Oct4::GFP+colonies
effect on reprogramming efficiency with all four iPS factors ([2]; listed as Simomenine): not enhanced
effect on reprogramming efficiency with all four iPS factors ([2]; listed as Sinimonine): do not increase the efficiency of reprogramming

CCCC(CCC)C(=O)O [VPA, valproic acid]
GFP+ colonies with VPA alone ([1]; 1500 MEFs, VPA only, no Sox2): no GFP+colonies were observed
increase in the number of GFP+ colonies over the untreated control [2]: greater than 10 fold
GFP+ colonies per 7500 MEFs in medium with VPA ([2]; four transgenes + VPA): 100-200 and ~125

NC(=O)c1ccc(-c2nc(-c3ccc4c(c3)OCO4)c(-c3ccccn3)[nH]2)cc1 [SB431542, 4-(5-benzo[1,3]dioxol-5-yl-4-pyridin-2-yl-1H-imidazol-2-yl)-benzamide]
Nanog expression versus untreated control (Nanog): strongly increased
GFP+ colonies per 7500 cells plated ([1]; 25 μM): −10
reprogramming efficiency in the absence of cMyc [7]: increased reprogramming efficiency
effect on reprogramming efficiency with all four iPS factors [2]: do not increase the efficiency of reprogramming
concentration required for complete Tgf-β inhibition (Tgf-β signaling): greater than 1 μM
